Tests used:
Experiment in all cases: relative viability (nuclei count vs DMSO), 5 days (fraction); higher = more cells survive
ABC-1 = system: ABC-1
In short: (§1)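 Values are medians from duplicate plates. Each reflects relative viability, defined as the nuclei count of treated wells over that of vehicle wells. Lung cancer cell lines in 1536-well plates were pin-tool dosed one day after seeding with one drug alone or with a fixed anchor-drug dose plus five library-drug doses (not always all listed) in √10 steps, then fixed, stained and imaged at 4× after 5 days.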

CAL-12T = system: CAL-12T
In short: as §1

ChaGo-K-1 = system: ChaGo-K-1
In short: as §1

EKVX = system: EKVX
In short: as §1

EPLC-272H = system: EPLC-272H
In short: as §1

H3255 = system: H3255
In short: as §1

HCC-366 = system: HCC-366
In short: as §1

HCC-827 = system: HCC-827
In short: as §1

NCI-H1355 = system: NCI-H1355
In short: as §1

NCI-H1792 = system: NCI-H1792
In short: as §1

NCI-H1975 = system: NCI-H1975
In short: as §1

NCI-H1993 = system: NCI-H1993
In short: as §1

NCI-H2085 = system: NCI-H2085
In short: as §1

NCI-H2087 = system: NCI-H2087
In short: as §1

NCI-H2342 = system: NCI-H2342
In short: as §1

NCI-H322M = system: NCI-H322M
In short: as §1

NCI-H441 = system: NCI-H441
In short: as §1

NCI-H460 = system: NCI-H460
In short: as §1

SMILES: CCNC(=O)c1noc(-c2cc(C(C)C)c(O)cc2O)c1-c1ccc(CN2CCOCC2)cc1 [Luminespib] + NC(=O)Nc1cc(-c2cccc(F)c2)sc1C(=O)N[C@H]1CCCNC1 [AZD7762] (partner 0.2 µM)
- relative viability (ABC-1; first compound 0.002 µM): 0.822
- relative viability (ABC-1; first compound 0.006325 µM): 0.737
- relative viability (ABC-1; first compound 0.02 µM): 0.715
- relative viability (ABC-1; first compound 0.06325 µM): 0.248
- relative viability (ABC-1; first compound 0.2 µM): 0.212
- relative viability (CAL-12T; first compound 0.002 µM): 0.698
- relative viability (CAL-12T; first compound 0.006325 µM): 0.691
- relative viability (CAL-12T; first compound 0.02 µM): 0.542
- relative viability (CAL-12T; first compound 0.06325 µM): 0.188
- relative viability (CAL-12T; first compound 0.2 µM): 0.182
- relative viability (ChaGo-K-1; first compound 0.002 µM): 0.9
- relative viability (ChaGo-K-1; first compound 0.006325 µM): 0.905
- relative viability (ChaGo-K-1; first compound 0.02 µM): 0.799
- relative viability (ChaGo-K-1; first compound 0.06325 µM): 0.515
- relative viability (ChaGo-K-1; first compound 0.2 µM): 0.172
- relative viability (EKVX; first compound 0.002 µM): 0.669
- relative viability (EKVX; first compound 0.006325 µM): 0.68
- relative viability (EKVX; first compound 0.02 µM): 0.475
- relative viability (EKVX; first compound 0.06325 µM): 0.239
- relative viability (EKVX; first compound 0.2 µM): 0.104
- relative viability (EPLC-272H; first compound 0.002 µM): 0.224
- relative viability (EPLC-272H; first compound 0.006325 µM): 0.389
- relative viability (EPLC-272H; first compound 0.02 µM): 0.193
- relative viability (EPLC-272H; first compound 0.06325 µM): 0.0934
- relative viability (EPLC-272H; first compound 0.2 µM): 0.127
- relative viability (H3255; first compound 0.002 µM): 0.857
- relative viability (H3255; first compound 0.006325 µM): 0.794
- relative viability (H3255; first compound 0.02 µM): 0.808
- relative viability (H3255; first compound 0.06325 µM): 0.774
- relative viability (H3255; first compound 0.2 µM): 0.31
- relative viability (HCC-366; first compound 0.002 µM): 0.392
- relative viability (HCC-366; first compound 0.006325 µM): 0.302
- relative viability (HCC-366; first compound 0.02 µM): 0.331
- relative viability (HCC-366; first compound 0.06325 µM): 0.0393
- relative viability (HCC-366; first compound 0.2 µM): 0.0222
- relative viability (HCC-827; first compound 0.002 µM): 0.162
- relative viability (HCC-827; first compound 0.006325 µM): 0.234
- relative viability (HCC-827; first compound 0.02 µM): 0.16
- relative viability (HCC-827; first compound 0.06325 µM): 0.124
- relative viability (HCC-827; first compound 0.2 µM): 0.0952
- relative viability (NCI-H1355; first compound 0.002 µM): 0.822
- relative viability (NCI-H1355; first compound 0.006325 µM): 0.693
- relative viability (NCI-H1355; first compound 0.02 µM): 0.526
- relative viability (NCI-H1355; first compound 0.06325 µM): 0.324
- relative viability (NCI-H1355; first compound 0.2 µM): 0.145
- relative viability (NCI-H1792; first compound 0.002 µM): 0.797
- relative viability (NCI-H1792; first compound 0.006325 µM): 0.519
- relative viability (NCI-H1792; first compound 0.02 µM): 0.146
- relative viability (NCI-H1792; first compound 0.06325 µM): 0.0335
- relative viability (NCI-H1792; first compound 0.2 µM): 0.0361
- relative viability (NCI-H1975; first compound 0.002 µM): 0.686
- relative viability (NCI-H1975; first compound 0.006325 µM): 0.735
- relative viability (NCI-H1975; first compound 0.02 µM): 0.348
- relative viability (NCI-H1975; first compound 0.06325 µM): 0.167
- relative viability (NCI-H1975; first compound 0.2 µM): 0.165
- relative viability (NCI-H1993; first compound 0.002 µM): 0.759
- relative viability (NCI-H1993; first compound 0.006325 µM): 0.772
- relative viability (NCI-H1993; first compound 0.02 µM): 0.513
- relative viability (NCI-H1993; first compound 0.06325 µM): 0.247
- relative viability (NCI-H1993; first compound 0.2 µM): 0.237
- relative viability (NCI-H2085; first compound 0.002 µM): 0.923
- relative viability (NCI-H2085; first compound 0.006325 µM): 0.909
- relative viability (NCI-H2085; first compound 0.02 µM): 0.694
- relative viability (NCI-H2085; first compound 0.06325 µM): 0.389
- relative viability (NCI-H2085; first compound 0.2 µM): 0.245
- relative viability (NCI-H2087; first compound 0.002 µM): 1.34
- relative viability (NCI-H2087; first compound 0.006325 µM): 1.1
- relative viability (NCI-H2087; first compound 0.02 µM): 1.45
- relative viability (NCI-H2087; first compound 0.06325 µM): 0.19
- relative viability (NCI-H2087; first compound 0.2 µM): 0.117
- relative viability (NCI-H2342; first compound 0.002 µM): 0.472
- relative viability (NCI-H2342; first compound 0.006325 µM): 0.434
- relative viability (NCI-H2342; first compound 0.02 µM): 0.371
- relative viability (NCI-H2342; first compound 0.06325 µM): 0.492
- relative viability (NCI-H2342; first compound 0.2 µM): 0.26
- relative viability (NCI-H322M; first compound 0.002 µM): 0.585
- relative viability (NCI-H322M; first compound 0.006325 µM): 0.485
- relative viability (NCI-H322M; first compound 0.02 µM): 0.441
- relative viability (NCI-H322M; first compound 0.06325 µM): 0.376
- relative viability (NCI-H322M; first compound 0.2 µM): 0.391
- relative viability (NCI-H441; first compound 0.002 µM): 1.08
- relative viability (NCI-H441; first compound 0.006325 µM): 1.05
- relative viability (NCI-H441; first compound 0.02 µM): 1.18
- relative viability (NCI-H441; first compound 0.06325 µM): 0.308
- relative viability (NCI-H441; first compound 0.2 µM): 0.126
- relative viability (NCI-H460; first compound 0.002 µM): 0.679
- relative viability (NCI-H460; first compound 0.006325 µM): 0.628
- relative viability (NCI-H460; first compound 0.02 µM): 0.717
- relative viability (NCI-H460; first compound 0.06325 µM): 0.0326
- relative viability (NCI-H460; first compound 0.2 µM): 0.0406

From the supplement of paper PMC10307832
